{"source": "patent US11780893B2", "about": "“Kv1.3 blockers” (Zealand Pharma A/S, priority 2019, dated 2023)", "key": {"Kv1.3": {"molecular_target": "T1, Kv1.3 (Homo sapiens, UniProt P22001)", "T1 construct": "expressed in transfected cells; host or cells: Chinese Hamster Ovary (CHO)", "T1 sequence (P22001 whole entry)": "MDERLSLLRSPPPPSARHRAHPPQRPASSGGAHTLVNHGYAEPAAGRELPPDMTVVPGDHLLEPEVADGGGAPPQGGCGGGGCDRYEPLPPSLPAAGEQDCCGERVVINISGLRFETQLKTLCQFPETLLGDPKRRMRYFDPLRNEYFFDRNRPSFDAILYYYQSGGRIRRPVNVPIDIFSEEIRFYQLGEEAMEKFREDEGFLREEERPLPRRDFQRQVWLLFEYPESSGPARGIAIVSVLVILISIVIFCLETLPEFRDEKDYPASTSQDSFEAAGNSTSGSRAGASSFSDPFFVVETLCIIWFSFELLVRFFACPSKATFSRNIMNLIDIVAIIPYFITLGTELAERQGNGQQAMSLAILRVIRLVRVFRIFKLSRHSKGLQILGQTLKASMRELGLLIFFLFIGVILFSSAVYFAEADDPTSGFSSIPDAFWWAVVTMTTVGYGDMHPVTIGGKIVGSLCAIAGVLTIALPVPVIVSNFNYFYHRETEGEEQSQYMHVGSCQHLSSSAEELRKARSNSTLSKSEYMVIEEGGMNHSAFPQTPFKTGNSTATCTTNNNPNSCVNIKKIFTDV", "assay": "cell-based", "settings": "CHO cells, whole-cell patch clamp; read-out: Potency IC50 (nM) Kv1.3"}, "Kv1.1": {"molecular_target": "T2, Kv1.1 (Homo sapiens, UniProt Q09470)", "T2 construct": "expressed in transfected cells; host or cells: Chinese Hamster Ovary (CHO)", "T2 sequence (Q09470 whole entry)": "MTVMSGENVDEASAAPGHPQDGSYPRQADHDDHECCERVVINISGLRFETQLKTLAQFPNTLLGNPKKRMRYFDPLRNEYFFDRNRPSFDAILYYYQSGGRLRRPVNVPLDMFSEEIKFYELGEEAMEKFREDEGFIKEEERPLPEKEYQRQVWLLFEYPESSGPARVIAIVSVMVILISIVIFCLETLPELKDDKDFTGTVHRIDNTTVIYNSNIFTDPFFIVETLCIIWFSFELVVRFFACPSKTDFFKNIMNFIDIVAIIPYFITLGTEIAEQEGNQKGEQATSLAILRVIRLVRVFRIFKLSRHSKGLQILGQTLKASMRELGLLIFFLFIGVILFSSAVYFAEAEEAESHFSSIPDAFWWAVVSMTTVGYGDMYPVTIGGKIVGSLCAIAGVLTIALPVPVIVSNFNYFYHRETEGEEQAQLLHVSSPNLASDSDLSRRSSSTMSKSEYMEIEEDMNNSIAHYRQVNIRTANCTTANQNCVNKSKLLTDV", "assay": "cell-based", "settings": "for IC50: CHO cells, whole-cell patch clamp, read-out: Potency IC50 (nM) Kv1.1; for Selectivity Kv1.1/Kv1.3: ratio IC50[Kv1.1]/IC50[Kv1.3]"}, "[1]": {"molecular_target": "T3, human Kv1.3 voltage-gated K+ channel (Homo sapiens, UniProt P22001)", "T3 construct": "host or cells: CHO-DUKX", "T3 sequence (P22001 whole entry)": "as the sequence (P22001 whole entry) above", "assay": "cell-based", "settings": "inhibition of thallium flux, CHO-DUKX cells with human Kv1.3; read-out: IC50"}, "in vivo": {"assay": "in vivo", "settings": "male, rat, sc, 70 nmol/kg"}, "Kv1.6": {"molecular_target": "T4, Kv1.6 (Homo sapiens, UniProt P17658)", "T4 construct": "expressed in transfected cells; host or cells: Chinese Hamster Ovary (CHO)", "T4 sequence (P17658 whole entry)": "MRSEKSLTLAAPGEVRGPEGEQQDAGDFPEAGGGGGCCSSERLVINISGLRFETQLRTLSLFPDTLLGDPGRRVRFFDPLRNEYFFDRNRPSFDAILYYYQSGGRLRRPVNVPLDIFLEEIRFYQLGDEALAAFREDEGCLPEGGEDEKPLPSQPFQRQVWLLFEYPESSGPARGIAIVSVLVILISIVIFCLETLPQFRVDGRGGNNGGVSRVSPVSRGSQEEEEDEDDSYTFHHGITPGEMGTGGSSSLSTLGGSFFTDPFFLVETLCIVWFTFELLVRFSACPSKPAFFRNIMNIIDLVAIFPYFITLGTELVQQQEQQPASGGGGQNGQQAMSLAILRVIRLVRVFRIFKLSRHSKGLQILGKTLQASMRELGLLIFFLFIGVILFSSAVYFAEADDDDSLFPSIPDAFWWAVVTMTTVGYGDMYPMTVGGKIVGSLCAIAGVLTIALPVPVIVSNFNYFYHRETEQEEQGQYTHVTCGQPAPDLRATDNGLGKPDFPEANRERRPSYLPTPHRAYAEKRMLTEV", "assay": "cell-based", "settings": "for IC50: CHO cells, whole-cell patch clamp, read-out: Potency IC50 (nM) Kv1.6; for Selectivity Kv1.6/Kv1.3: ratio IC50[Kv1.6]/IC50[Kv1.3]"}, "Kv1.2": {"molecular_target": "T5, Kv1.2 (Homo sapiens, UniProt P16389)", "T5 construct": "expressed in transfected cells; host or cells: Chinese Hamster Ovary (CHO)", "T5 sequence (P16389 whole entry)": "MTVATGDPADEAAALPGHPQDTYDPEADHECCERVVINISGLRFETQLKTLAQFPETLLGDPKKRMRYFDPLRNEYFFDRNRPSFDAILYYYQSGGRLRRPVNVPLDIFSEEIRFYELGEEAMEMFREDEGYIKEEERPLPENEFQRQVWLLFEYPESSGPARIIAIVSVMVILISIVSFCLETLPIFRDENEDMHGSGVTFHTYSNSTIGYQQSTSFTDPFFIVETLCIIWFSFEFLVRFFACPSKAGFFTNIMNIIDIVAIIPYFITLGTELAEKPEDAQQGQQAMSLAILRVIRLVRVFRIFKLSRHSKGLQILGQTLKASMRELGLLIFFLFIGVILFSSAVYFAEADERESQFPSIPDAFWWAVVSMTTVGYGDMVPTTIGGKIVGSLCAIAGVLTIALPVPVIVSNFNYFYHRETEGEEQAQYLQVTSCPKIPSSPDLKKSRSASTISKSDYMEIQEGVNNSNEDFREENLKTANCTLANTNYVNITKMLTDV", "assay": "cell-based", "settings": "CHO cells, whole-cell patch clamp; read-out: Potency IC50 (nM) Kv1.2"}, "Rat whole blood": {"molecular_target": "Rat whole blood (Rattus norvegicus, UniProt P15384)", "sequence (P15384 whole entry)": "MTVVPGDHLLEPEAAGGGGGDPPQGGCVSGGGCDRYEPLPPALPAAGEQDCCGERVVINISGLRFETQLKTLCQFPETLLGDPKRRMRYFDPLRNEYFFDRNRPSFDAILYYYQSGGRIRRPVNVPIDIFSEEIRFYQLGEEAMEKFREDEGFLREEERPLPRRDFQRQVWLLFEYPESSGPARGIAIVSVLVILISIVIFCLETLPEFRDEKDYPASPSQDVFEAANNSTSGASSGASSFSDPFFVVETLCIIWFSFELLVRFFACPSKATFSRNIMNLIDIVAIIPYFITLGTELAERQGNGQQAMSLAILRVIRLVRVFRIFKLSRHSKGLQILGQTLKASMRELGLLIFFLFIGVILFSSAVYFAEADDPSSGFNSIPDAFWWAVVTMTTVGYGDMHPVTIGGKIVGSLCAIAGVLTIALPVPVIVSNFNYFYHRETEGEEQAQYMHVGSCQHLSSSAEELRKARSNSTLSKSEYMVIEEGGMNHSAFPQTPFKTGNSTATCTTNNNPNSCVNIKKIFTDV"}}, "note": "Bridge positions count the residues as written; N and C are the ends. Square brackets hold non-standard residues; d marks the D form. Peptide text beside a SMILES is read from it. Nle = CCCC[C@H](N)C(=O)O", "data": [{"smiles": "CC[C@H](C)[C@@H]1NC(=O)[C@H](C)NC(=O)[C@H](CCCCN)NC(=O)[C@H](CC(C)C)NC(=O)[C@@H]2CSSC[C@@H](C(=O)N[C@@H](Cc3ccc(O)cc3)C(=O)N3CCC[C@H]3C(=O)N[C@@H](CCCNC(=N)N)C(=O)O)NC(=O)[C@H](CCCCN)NC(=O)[C@@H]3CSSC[C@H](NC(=O)[C@H](CCC(=O)O)NC(=O)[C@H](C(C)C)NC(=O)[C@H](CO)NC(=O)[C@H](C)NC(=O)[C@H](CO)NC(=O)[C@@H](NC(=O)[C@H](CCCNC(=N)N)NC(=O)[C@H](CCSC)NC(=O)[C@H](CC(=O)O)NC(=O)[C@@H](N)CCSC)CSSC[C@H](NC(=O)[C@H](CCCCN)NC(=O)CNC(=O)[C@H](Cc4ccccc4)NC(=O)[C@H]([C@@H](C)CC)NC(=O)[C@H](CO)NC(=O)CNC1=O)C(=O)N[C@@H](CCSC)C(=O)N[C@@H](CC(N)=O)C(=O)N[C@@H](CCCCN)C(=O)N[C@@H](CCCCN)C(=O)N3)C(=O)N[C@@H](CCCCN)C(=O)N[C@@H](CCC(N)=O)C(=O)N[C@@H](CCCCN)C(=O)N2", "note": "[Compound 5] (H-MDMRCSASVECKQKCLKAIGSIFGKCMNKKCKCYPR-OH; disulfide 5-26, 11-31, 15-33)", "values": [{"measurement": "IC50", "setting": "Kv1.3", "result": 0.38, "unit": "nM"}, {"measurement": "IC50", "setting": "Kv1.1", "result": "> 3000", "unit": "nM"}, {"measurement": "Selectivity Kv1.1/Kv1.3", "setting": "Kv1.1", "result": ">7900"}, {"measurement": "IC50", "setting": "[1]", "result": 0.25, "unit": "nM"}, {"measurement": "AUC(0-inf)", "setting": "in vivo", "result": 0.0724, "unit": "µM·h"}, {"measurement": "Cmax", "setting": "in vivo", "result": 48.4, "unit": "nM"}, {"measurement": "half-life", "setting": "in vivo", "result": 55.8, "unit": "min"}, {"measurement": "IC50", "setting": "Kv1.6", "result": "> 3000", "unit": "nM"}, {"measurement": "Selectivity Kv1.6/Kv1.3", "setting": "Kv1.6", "result": ">7900"}, {"measurement": "IC50", "setting": "Kv1.2", "result": 285, "unit": "nM"}]}, {"smiles": "CCCC[C@@H]1NC(=O)[C@@H]2CSSC[C@H](NC(C)=O)C(=O)N[C@@H](CO)C(=O)N[C@@H](C)C(=O)N[C@@H](CO)C(=O)N[C@@H](C(C)C)C(=O)N[C@@H](CCC(=O)O)C(=O)N[C@H]3CSSC[C@H](NC(=O)[C@H](CCCCN)NC(=O)[C@H](CCCCN)NC(=O)[C@H](CC(N)=O)NC1=O)C(=O)N[C@@H](CCCCN)C(=O)N[C@H](C(=O)N[C@@H](Cc1ccc(O)cc1)C(=O)N1CCC[C@H]1C(=O)N[C@@H](CCCNC(=N)N)C(N)=O)CSSC[C@H](NC(=O)[C@H](CCCCN)NC(=O)[C@H](CCC(N)=O)NC(=O)[C@H](CCCCN)NC3=O)C(=O)N[C@@H](CC(C)C)C(=O)N[C@@H](CCCCN)C(=O)N[C@@H](C)C(=O)N[C@@H]([C@@H](C)CC)C(=O)NCC(=O)N[C@@H](CO)C(=O)N[C@@H]([C@@H](C)CC)C(=O)N[C@@H](Cc1ccccc1)C(=O)NCC(=O)N[C@@H](CCCCN)C(=O)N2", "note": "[Compound 105] (Ac-CSASVECKQKCLKAIGSIFGKC[Nle]NKKCKCYPR-NH2; disulfide 1-22, 7-27, 11-29)", "values": [{"measurement": "IC50", "setting": "Kv1.3", "result": 0.24, "unit": "nM"}, {"measurement": "IC50", "setting": "Kv1.1", "result": "> 3000", "unit": "nM"}, {"measurement": "Selectivity Kv1.1/Kv1.3", "setting": "Kv1.1", "result": ">12400"}, {"measurement": "IC50", "setting": "[1]", "result": 0.16, "unit": "nM"}, {"measurement": "IC50", "setting": "Kv1.6", "result": "> 3000", "unit": "nM"}, {"measurement": "Selectivity Kv1.6/Kv1.3", "setting": "Kv1.6", "result": ">12400"}, {"measurement": "IC50", "setting": "Kv1.2", "result": 384, "unit": "nM"}, {"measurement": "IC50", "setting": "Rat whole blood", "result": "≤ 1", "unit": "nM"}]}, {"smiles": "CCCC[C@@H]1NC(=O)[C@@H]2CSSC[C@H](NC(=O)[C@@H](N)CCCNC(=N)N)C(=O)N[C@@H](CO)C(=O)N[C@@H](C)C(=O)N[C@@H](CO)C(=O)N[C@@H](C(C)C)C(=O)N[C@@H](CCC(=O)O)C(=O)N[C@H]3CSSC[C@H](NC(=O)[C@H](CCCCN)NC(=O)[C@H](CCCCN)NC(=O)[C@H](CC(N)=O)NC1=O)C(=O)N[C@@H](CCCCN)C(=O)N[C@H](C(=O)N[C@@H](Cc1ccc(O)cc1)C(=O)N1CCC[C@H]1C(=O)N[C@@H](CCCNC(=N)N)C(N)=O)CSSC[C@H](NC(=O)[C@H](CCCCN)NC(=O)[C@H](CCC(N)=O)NC(=O)[C@H](CCCCN)NC3=O)C(=O)N[C@@H](CC(C)C)C(=O)N[C@@H](CCCCN)C(=O)N[C@@H](C)C(=O)N[C@@H]([C@@H](C)CC)C(=O)NCC(=O)N[C@@H](CO)C(=O)N[C@@H]([C@@H](C)CC)C(=O)N[C@@H](Cc1ccccc1)C(=O)NCC(=O)N[C@@H](CCCCN)C(=O)N2", "note": "[Compound 106] (H-RCSASVECKQKCLKAIGSIFGKC[Nle]NKKCKCYPR-NH2; disulfide 2-23, 8-28, 12-30)", "values": [{"measurement": "IC50", "setting": "Kv1.3", "result": 0.4, "unit": "nM"}, {"measurement": "IC50", "setting": "Kv1.1", "result": "> 3000", "unit": "nM"}, {"measurement": "Selectivity Kv1.1/Kv1.3", "setting": "Kv1.1", "result": ">7600"}, {"measurement": "IC50", "setting": "[1]", "result": 0.092, "unit": "nM"}, {"measurement": "IC50", "setting": "Kv1.6", "result": 1300, "unit": "nM"}, {"measurement": "IC50", "setting": "Kv1.2", "result": 280, "unit": "nM"}, {"measurement": "IC50", "setting": "Rat whole blood", "result": "≤ 1", "unit": "nM"}]}, {"smiles": "CCCC[C@@H]1NC(=O)[C@@H]2CSSC[C@H](NC(=O)[C@H](CCCCN)NC(=O)[C@H](CO)NC(C)=O)C(=O)N[C@@H](CO)C(=O)N[C@@H](C)C(=O)N[C@@H](CO)C(=O)N[C@@H](C(C)C)C(=O)N[C@@H](CCC(=O)O)C(=O)N[C@H]3CSSC[C@H](NC(=O)[C@H](CCCCN)NC(=O)[C@H](CCCCN)NC(=O)[C@H](CC(N)=O)NC1=O)C(=O)N[C@@H](CCCCN)C(=O)N[C@H](C(=O)N[C@@H](Cc1ccc(O)cc1)C(=O)N1CCC[C@H]1C(=O)N[C@@H](CCCNC(=N)N)C(N)=O)CSSC[C@H](NC(=O)[C@H](CCCCN)NC(=O)[C@H](CCC(N)=O)NC(=O)[C@H](CCCCN)NC3=O)C(=O)N[C@@H](CC(C)C)C(=O)N[C@@H](CCCCN)C(=O)N[C@@H](C)C(=O)N[C@@H]([C@@H](C)CC)C(=O)NCC(=O)N[C@@H](CO)C(=O)N[C@@H]([C@@H](C)CC)C(=O)N[C@@H](Cc1ccccc1)C(=O)NCC(=O)N[C@@H](CCCCN)C(=O)N2", "note": "[Compound 107] (Ac-SKCSASVECKQKCLKAIGSIFGKC[Nle]NKKCKCYPR-NH2; disulfide 3-24, 9-29, 13-31)", "values": [{"measurement": "IC50", "setting": "Kv1.3", "result": 1, "unit": "nM"}, {"measurement": "IC50", "setting": "Kv1.1", "result": "> 3000", "unit": "nM"}, {"measurement": "Selectivity Kv1.1/Kv1.3", "setting": "Kv1.1", "result": ">3000"}, {"measurement": "IC50", "setting": "[1]", "result": 0.084, "unit": "nM"}, {"measurement": "IC50", "setting": "Kv1.6", "result": 1450, "unit": "nM"}, {"measurement": "IC50", "setting": "Kv1.2", "result": 196, "unit": "nM"}, {"measurement": "IC50", "setting": "Rat whole blood", "result": "≤ 1", "unit": "nM"}]}, {"smiles": "CCCC[C@@H]1NC(=O)[C@@H]2CSSC[C@H](NC(=O)[C@H](CCCNC(=N)N)NC(=O)[C@H](CC(C)C)NC(C)=O)C(=O)N[C@@H](CO)C(=O)N[C@@H](C)C(=O)N[C@@H](CO)C(=O)N[C@@H](C(C)C)C(=O)N[C@@H](CCC(=O)O)C(=O)N[C@H]3CSSC[C@H](NC(=O)[C@H](CCCCN)NC(=O)[C@H](CCCCN)NC(=O)[C@H](CC(N)=O)NC1=O)C(=O)N[C@@H](CCCCN)C(=O)N[C@H](C(=O)N[C@@H](Cc1ccc(O)cc1)C(=O)N1CCC[C@H]1C(=O)N[C@@H](CCCNC(=N)N)C(N)=O)CSSC[C@H](NC(=O)[C@H](CCCCN)NC(=O)[C@H](CCC(N)=O)NC(=O)[C@H](CCCCN)NC3=O)C(=O)N[C@@H](CC(C)C)C(=O)N[C@@H](CCCCN)C(=O)N[C@@H](C)C(=O)N[C@@H]([C@@H](C)CC)C(=O)NCC(=O)N[C@@H](CO)C(=O)N[C@@H]([C@@H](C)CC)C(=O)N[C@@H](Cc1ccccc1)C(=O)NCC(=O)N[C@@H](CCCCN)C(=O)N2", "note": "[Compound 108] (Ac-LRCSASVECKQKCLKAIGSIFGKC[Nle]NKKCKCYPR-NH2; disulfide 3-24, 9-29, 13-31)", "values": [{"measurement": "IC50", "setting": "Kv1.3", "result": 0.35, "unit": "nM"}, {"measurement": "IC50", "setting": "Kv1.1", "result": "> 3000", "unit": "nM"}, {"measurement": "Selectivity Kv1.1/Kv1.3", "setting": "Kv1.1", "result": ">8700"}, {"measurement": "IC50", "setting": "[1]", "result": 0.1, "unit": "nM"}, {"measurement": "IC50", "setting": "Kv1.6", "result": 2460, "unit": "nM"}, {"measurement": "IC50", "setting": "Kv1.2", "result": 122, "unit": "nM"}, {"measurement": "IC50", "setting": "Rat whole blood", "result": "≤ 1", "unit": "nM"}]}]}
